From patent US5130300A, “Method for enhancing growth of mammary parenchyma” (Monsanto Company, priority 1987, dated 1992)

Columns and labels:
[1] = system: L6 myoblast; assay: Standard L6 myoblast assays; format: cell-based
Description: (§1) 24 pregnant, non-lactating, cross-bred beef cows within their last 40-80 days of gestation were housed in a free-stall facility, fed a ration of alfalfa hay and pelleted concentrate, and administered 10 ml of an excipient (a sesame oil emulsion of the kind used in Examples 4-6) into each half-udder by intramammary infusion through the streak canal on days 1, 3, 5, 7 and 9 of this study. The infusion technique, random assignment of half-udders to treatment or control, and treatment vs. control comparisons were as in Examples 1-2. In the treatment infusions, the excipient contained bovine insulin-like growth factor-I (bIGF-I) prepared by expression in E. coli (Prla Strain 079) of recombinant DNA coding for bIGF-I fused to the "lam" B cell wall protein signal sequence, secretion into the E. coli periplasmic space, and recovery/purification by conventional techniques including gel filtration, cation exchange and reverse-phase HPLC. This bIGF-I had the same amino acid sequence and secondary structure as the AMgen human IGF-I used in Example 20. In standard L6 myoblast assays, its activity was essentially the same (90-123%) as that of the Example 20 hIGF-I. The amounts of bIGF-I in each infusion were: Group 1-2.5 micrograms: Group 2-25 micrograms; Group 3-250 micrograms. Animals were prepared and infused, and their quarter-udder weights and DNA were determined as in Example 3-6.

[2] = system: Quarter-Udders in Pregnant Beef Cows; assay: Intramammary infusion of bIGF-I, quarter-udder weights and DNA (Examples 14-16); format: in vivo, cross-bred beef cows
Description: as §1
When the procedures described for Groups 1-3 were repeated, results were essentially the same. Pooling results from the original study and its replication, it was determined that both treatment and control quarter-udders had grown as follows: […]

[3] = Group 1: total of 12.5 micrograms bIGF-I
[4] = Group 1: total of 12.5 micrograms bIGF-I, sesame oil emulsion
[5] = Group 1: total of 12.5 micrograms bIGF-I, B = excipient only

bIGF-I: bovine insulin-like growth factor-I prepared by expression in E. coli of recombinant DNA
Activity relative to the Example 20 hIGF-I [1]: 90-123%
DNA, Avg % Increase/Animal [2, 3]: 12.5%
Dry Fat-Free Weight, Avg % Increase/Animal [2, 3]: 16.0%
Dry Weight, Avg % Increase/Animal [2, 3]: 8.8%
Wet Weight, Avg % Increase/Animal [2, 3]: 11.0%
DNA, Treatment Mean [2, 4]: 1307 mg
Dry Fat-Free Weight, Treatment Mean [2, 4]: 54.9 g
Dry Weight, Treatment Mean [2, 4]: 111.7 g
Wet Weight, Treatment Mean [2, 4]: 408.4 g
DNA, % Increase, (A-B)/B [2, 5]: 7.2%
DNA, Mean Increase (A-B) [2, 5]: 88 mg
Dry Fat-Free Weight, % Increase, (A-B)/B [2, 5]: 14.2%
Dry Fat-Free Weight, Mean Increase (A-B) [2, 5]: 6.9 g
Dry Weight, % Increase, (A-B)/B [2, 5]: 8.7%
Dry Weight, Mean Increase (A-B) [2, 5]: 9.0 g
Wet Weight, % Increase, (A-B)/B [2, 5]: 10.7%
Wet Weight, Mean Increase (A-B) [2, 5]: 39.4 g
Plasma levels of bIGF-I during the study ([2]; intramammary infusion, pregnant beef cows): did not increase significantly
Growth of quarter-udders combined, Medium vs. Low dose ([2]; pooled original study and replication, 25 vs 2.5 micrograms bIGF-I per infusion, Combined): +25%
Growth of control quarter-udders, Medium vs. Low dose ([2]; pooled original study and replication, 25 vs 2.5 micrograms bIGF-I per infusion, Controls): +27%
Growth of treatment quarter-udders, Medium vs. Low dose ([2]; pooled original study and replication, 25 vs 2.5 micrograms bIGF-I per infusion, Treatment): +23.1%
Growth of quarter-udders combined, High vs. Low dose ([2]; pooled original study and replication, 250 vs 2.5 micrograms bIGF-I per infusion, Combined): +67%
Growth of control quarter-udders, High vs. Low dose ([2]; pooled original study and replication, 250 vs 2.5 micrograms bIGF-I per infusion, Controls): +71.3%
Growth of treatment quarter-udders, High vs. Low dose ([2]; pooled original study and replication, 250 vs 2.5 micrograms bIGF-I per infusion, Treatment): +62%
Growth of quarter-udders combined, High vs. Medium dose ([2]; pooled original study and replication, 250 vs 25 micrograms bIGF-I per infusion, Combined): +33%
Growth of control quarter-udders, High vs. Medium dose ([2]; pooled original study and replication, 250 vs 25 micrograms bIGF-I per infusion, Controls): +34.4%
Growth of treatment quarter-udders, High vs. Medium dose ([2]; pooled original study and replication, 250 vs 25 micrograms bIGF-I per infusion, Treatment): +31.5%
Growth of the non-infused quarters ([2]; two higher doses (Groups 2-3)): substantial growth
Growth of treatment quarters vs. control quarters ([2]; two higher doses (Groups 2-3: 25 and 250 micrograms per infusion)): did not produce consistently greater growth of treatment quarters vs. control quarters
